Measured values published in ChEMBL document CHEMBL5154781, “Discovery of Novel Sertraline Derivatives as Potent Anti-Cryptococcus Agents” (J Med Chem, 2022).
Converted amounts (≈) assume the structure as drawn. The source made the active and inactive calls. No cut-off for these calls is given here.

Legend:
[1] = test system: Cryptococcus neoformans; assay: microbe, parasite or virus in culture; type: functional, organism-based; conditions: H99, 72 h
Description: Anti-cryptococcal activity against Cryptococcus neoformans H99 assessed as inhibition of fungal growth incubated for 72 hrs by microdilution method

[2] = test system: Cryptococcus neoformans; assay: Anti-cryptococcal activity against Cryptococcus neoformans H99 assessed as inhibition of fungal growth at 4 to 8 ug/ml measured for 3 to 48 hrs by time-growth curve assay; type: functional, organism-based; conditions: dose 4-8 µg/ml, time 3-48 hrs
[3] = test system: Cryptococcus neoformans; assay: Inhibition of biofilm formation in Cryptococcus neoformans H99 at 0.5 to 8 ug/ml incubated for 24 hrs by XTT reduction assay; type: functional, organism-based; conditions: dose 0.5-8 µg/ml, DDE = dose-dependent effect
[4] = test system: Cryptococcus neoformans; assay: Inhibition of biofilm formation in Cryptococcus neoformans H99 at 2 ug/ml incubated for 24 hrs by XTT reduction assay; type: functional
[5] = test system: Aspergillus fumigatus; assay: microbe, parasite or virus in culture; type: functional, organism-based; conditions: 023-2, 48 h
Description: Antifungal activity against Aspergillus fumigatus 023-2 assessed as inhibition of fungal growth incubated for 48 hrs by microdilution method

[6] = test system: [Candida] auris; assay: Antifungal activity against Candida auris 15448 assessed as inhibition of fungal growth incubated for 48 hrs by microdilution method; type: functional, organism-based; conditions: Candidozyma auris, 15448, 48 h
[7] = test system: Cryptococcus neoformans; assay: Inhibition of Cryptococcus neoformans H99 delta5,6-desaturase assessed as upregulation of ERG24 gene expression at 2 ug/ml incubated for 24 hrs by RT-PCR analysis; conditions: dose 2.0 µg/ml
[8] = test system: Pichia kudriavzevii; assay: microbe, parasite or virus in culture; type: functional, organism-based; conditions: Pichia kudriavzevii, 10153, 48 h
Description: Antifungal activity against Candida krusei 10153 assessed as inhibition of fungal growth incubated for 48 hrs by microdilution method

[9] = test system: [Candida] auris; assay: microbe, parasite or virus in culture; type: functional, organism-based; conditions: Candidozyma auris, 0030, 48 h
Description: Antifungal activity against Candida auris 0030 assessed as inhibition of fungal growth incubated for 48 hrs by microdilution method

[10] = test system: Nakaseomyces glabratus; assay: microbe, parasite or virus in culture; type: functional, organism-based; conditions: Nakaseomyces glabratus, 9073, 48 h
Description: Antifungal activity against Candida glabrata 9073 assessed as inhibition of fungal growth incubated for 48 hrs by microdilution method

[11] = test system: Nakaseomyces glabratus; assay: microbe, parasite or virus in culture; type: functional, organism-based; conditions: Nakaseomyces glabratus, 9025, 48 h
Description: Antifungal activity against Candida glabrata 9025 assessed as inhibition of fungal growth incubated for 48 hrs by microdilution method

[12] = test system: Cryptococcus neoformans; assay: Inhibition of Cryptococcus neoformans H99 delta5,6-desaturase assessed as upregulation of ERG1 gene expression at 2 ug/ml incubated for 24 hrs by RT-PCR analysis; conditions: dose 2.0 µg/ml
[13] = test system: Cryptococcus neoformans; assay: Inhibition of Cryptococcus neoformans H99 delta5,6-desaturase assessed as upregulation of ERG4 gene expression at 2 ug/ml incubated for 24 hrs by RT-PCR analysis; conditions: dose 2.0 µg/ml
[14] = test system: Candida albicans; assay: microbe, parasite or virus in culture; type: functional, organism-based; conditions: SC5314, 48 h
Description: Antifungal activity against Candida albicans SC5314 assessed as inhibition of fungal growth incubated for 48 hrs by microdilution method

[15] = test system: Cryptococcus neoformans; assay: Inhibition of Cryptococcus neoformans H99 delta5,6-desaturase assessed as upregulation of ERG5 gene expression at 2 ug/ml incubated for 24 hrs by RT-PCR analysis; conditions: dose 2.0 µg/ml
[16] = test system: Cryptococcus neoformans; assay: Inhibition of Cryptococcus neoformans H99 delta5,6-desaturase assessed as upregulation of ERG3 gene expression at 2 ug/ml incubated for 24 hrs by RT-PCR analysis; conditions: dose 2.0 µg/ml
[17] = test system: Cryptococcus neoformans; assay: Inhibition of Cryptococcus neoformans H99 delta5,6-desaturase assessed as upregulation of ERG2 gene expression at 2 ug/ml incubated for 24 hrs by RT-PCR analysis; conditions: dose 2.0 µg/ml
[18] = test system: Candida tropicalis; assay: microbe, parasite or virus in culture; type: functional, organism-based; conditions: Candida tropicalis, 10186, 48 h
Description: Antifungal activity against Candida tropicalis 10186 assessed as inhibition of fungal growth incubated for 48 hrs by microdilution method

[19] = test system: Aspergillus fumigatus; assay: microbe, parasite or virus in culture; type: functional, organism-based; conditions: Aspergillus fumigatus, 7544, 48 h
Description: Antifungal activity against Aspergillus fumigatus 7544 assessed as inhibition of fungal growth incubated for 48 hrs by microdilution method

[20] = test system: Cryptococcus neoformans; assay: Anti-cryptococcal activity against Cryptococcus neoformans H99 assessed as inhibition of fungal growth at 1 to 8 ug/ml incubated upto 72 hrs by time-growth curve assay; type: functional, organism-based; conditions: dose 1-8 µg/ml
[21] = microbe, parasite or virus in culture; type: functional; conditions: Cryptococcus; time 72 hrs
Description: Anti-cryptococcal activity against Cryptococcus assessed as inhibition of fungal growth incubated for 72 hrs by microdilution method

[22] = test system: Cryptococcus neoformans; assay: Inhibition of biofilm formation in Cryptococcus neoformans H99 at 8 ug/ml incubated for 24 hrs by XTT reduction assay; type: functional
[23] = test system: Cryptococcus neoformans; assay: Inhibition of Cryptococcus neoformans H99 delta5,6-desaturase assessed as upregulation of ERG11 gene expression at 2 ug/ml incubated for 24 hrs by RT-PCR analysis; conditions: dose 2.0 µg/ml
[24] = test system: Candida albicans; assay: microbe, parasite or virus in culture; type: functional, organism-based; conditions: Candida albicans, 904, 48 h
Description: Antifungal activity against Candida albicans 904 assessed as inhibition of fungal growth incubated for 48 hrs by microdilution method

[25] = test system: [Candida] auris; assay: microbe, parasite or virus in culture; type: functional, organism-based; conditions: Candidozyma auris, 0029, 48 h
Description: Antifungal activity against Candida auris 0029 assessed as inhibition of fungal growth incubated for 48 hrs by microdilution method

[26] = test system: Candida albicans; assay: microbe, parasite or virus in culture; type: functional, organism-based; conditions: Candida albicans, 0304103, 48 h
Description: Antifungal activity against Candida albicans 0304103 assessed as inhibition of fungal growth incubated for 48 hrs by microdilution method

[27] = test system: Cryptococcus neoformans; assay: Fungicidal activity against Cryptococcus neoformans H99 assessed as fungal growth inhibition incubated upto 72 hrs by time-fungicidal curve assay; type: functional

SMILES: Cl.Clc1ccc(C2CCC(NCCCC3CCCCC3)c3ccsc32)cc1Cl (stereo not given)
- IC50 [1]: 2 µg/mL

SMILES: CN1CCC(CCNC2CCC(c3ccc(Cl)c(Cl)c3)c3sccc32)CC1.Cl (stereo not given)
- IC50 [1]: 2 µg/mL

SMILES: Cl.Clc1ccc(C2CCC(NCC3CCCCC3)c3ccsc32)cc1Cl (stereo not given)
- IC50 [1]: 2 µg/mL

SMILES: Cl.Clc1ccc(C2CCC(NCCC3CCCCC3)c3ccsc32)cc1 (stereo not given)
- IC50 [1]: 64 µg/mL

SMILES: Cl.Clc1ccc(C2CCC(NCCC3CCCCC3)c3ccsc32)cc1Cl (stereo not given)
- Activity [2]: Active
- inhibition [3]: Dde
- IC50 [1]: 1 µg/mL
- inhibition at 2 µg/mL [4]: 50%

SMILES: OC(Cn1cncn1)(Cn1cncn1)c1ccc(F)cc1F [FLUCONAZOLE]
- IC50 [5]: > 64 µg/mL
- IC50 [6]: 4 µg/mL (≈ 13.1 µM)
- Activity [7]: Active
- IC50 [8]: 64 µg/mL (≈ 209 µM)
- IC50 [9]: > 64 µg/mL
- IC50 [10]: 64 µg/mL (≈ 209 µM)
- IC50 [11]: 16 µg/mL (≈ 52.2 µM)
- Activity [12]: Active
- Activity [13]: Active
- IC50 [14]: 0.25 µg/mL (≈ 0.816 µM)
- Activity [15]: Active
- Activity [16]: Active
- Activity [17]: Active
- IC50 [18]: > 64 µg/mL
- IC50 [19]: > 64 µg/mL
- Activity [20]: Active
- IC50 [1]: 2 µg/mL (≈ 6.53 µM)
- MIC50 [21]: 1.14 µg/mL (≈ 3.72 µM)
- inhibition at 8 µg/mL [22]: 50%
- Activity [23]: Active
- IC50 [24]: > 64 µg/mL
- IC50 [25]: > 64 µg/mL
- IC50 [26]: > 64 µg/mL

SMILES: CC(C)NC1CCC(c2ccc(Cl)c(Cl)c2)c2sccc21.Cl (stereo not given)
- IC50 [1]: 16 µg/mL

SMILES: Cl.Clc1ccc(C2CCC(NC3CCCC3)c3ccsc32)cc1Cl (stereo not given)
- IC50 [1]: 8 µg/mL

SMILES: Cl.Clc1ccc(C2CCC(NC3CCCCC3)c3ccsc32)cc1Cl (stereo not given)
- IC50 [1]: 8 µg/mL

SMILES: C[C@@H]1[C@H](O)[C@@H](C)/C=C/C=C/C=C/C=C/C=C/C=C/C=C/[C@H](O[C@@H]2O[C@H](C)[C@@H](O)[C@H](N)[C@@H]2O)C[C@@H]2O[C@](O)(C[C@@H](O)C[C@@H](O)[C@H](O)CC[C@@H](O)C[C@@H](O)CC(=O)O[C@H]1C)C[C@H](O)[C@H]2C(=O)O [AMPHOTERICIN B]
- IC50 [1]: 0.25 µg/mL (≈ 0.271 µM)
- MIC50 [21]: 0.13 µg/mL (≈ 0.141 µM)
- MFC [27]: 4 µg/mL (≈ 4.33 µM)

SMILES: Cc1ccc(C2CCC(NCCC3CCCCC3)c3ccsc32)cc1C.Cl (stereo not given)
- IC50 [1]: 32 µg/mL

SMILES: Cl.Clc1ccc(C2CCC(NCc3ncccn3)c3ccsc32)cc1Cl (stereo not given)
- IC50 [1]: 32 µg/mL

SMILES: CC(C)(C)CNC1CCC(c2ccc(Cl)c(Cl)c2)c2sccc21.Cl (stereo not given)
- IC50 [1]: 4 µg/mL
